For data set [1], the system named is Human immunodeficiency virus 2. Description: Antiviral activity against HIV-2 ROD infected in human MT4 cells assessed as protection against virus induced cytopathic effect and measured after 5 days by MTT spectrophotometric assay. As to conditions: Human immunodeficiency virus 2, ROD, MT4, 120 h. It is filed as functional, organism-based. (Cytopathic effects are the visible damage that an infection or toxin causes in cultured cells.)

The test system of data set [2] is Human immunodeficiency virus 1. Put plainly: Antiviral activity against HIV-1 RES056 mutant infected in human MT4 cells assessed as protection against virus induced cytopathic effect and measured after 5 days by MTT spectrophotometric assay. Format: functional, organism-based. As to conditions: Human immunodeficiency virus 1, MT4, 120 h.
In data set [3] the test system is Human immunodeficiency virus 1. Put plainly: Antiviral activity against HIV-1 E138K mutant infected in human MT4 cells assessed as protection against virus induced cytopathic effect and measured after 5 days by MTT spectrophotometric assay. Format: functional, organism-based. The settings on record: Human immunodeficiency virus 1, MT4, 120 h.
In data set [4] the test system is Human immunodeficiency virus 1. Description: Antiviral activity against HIV-1 K103 N mutant infected in human MT4 cells assessed as protection against virus induced cytopathic effect and measured after 5 days by MTT spectrophotometric assay. Format: functional, organism-based. As to conditions: Human immunodeficiency virus 1, MT4, 120 h.
Data set [5] concerns Human immunodeficiency virus 1. Description: Antiviral activity against HIV-1 Y188L mutant infected in human MT4 cells assessed as protection against virus induced cytopathic effect and measured after 5 days by MTT spectrophotometric assay. As to conditions: Human immunodeficiency virus 1, MT4, 120 h. It is filed as functional, organism-based.
The test system of data set [6] is Human immunodeficiency virus 1. Description: Antiviral activity against HIV-1 L100I mutant infected in human MT4 cells assessed as protection against virus induced cytopathic effect and measured after 5 days by MTT spectrophotometric assay. It is filed as functional, organism-based. As to conditions: Human immunodeficiency virus 1, MT4, 120 h.
In data set [7] the test system is Human immunodeficiency virus 1. Description: microbe, parasite or virus in culture. The settings on record: Human immunodeficiency virus 1, IIIb, MT4, 120 h.
Description: Antiviral activity against HIV-1 IIIb infected in human MT4 cells assessed as protection against virus induced cytopathic effect and measured after 5 days by MTT spectrophotometric assay
Data set [8] is described as follows: Cytotoxicity against human MT4 cells assessed as reduction in cell viability incubated for 5 days by MTT spectrophotometric assay. It is filed as toxicity, cell-based. As to conditions: time 5 day. (In general: Formazan colour is commonly taken as a measure of viable cells.)
In data set [9] the test system is Human immunodeficiency virus 1. Put plainly: Antiviral activity against HIV-1 Y181C mutant infected in human MT4 cells assessed as protection against virus induced cytopathic effect and measured after 5 days by MTT spectrophotometric assay. Format: functional, organism-based. The settings on record: Human immunodeficiency virus 1, MT4, 120 h.
In data set [10] the target is Human immunodeficiency virus type 1 reverse transcriptase (Human immunodeficiency virus 1, UniProt Q72547). Description: Inhibition of HIV-1 reverse transcriptase using [2,8-3H]dGTP as substrate by […] assay.
A short description of another data set: in vitro. As to conditions: human, MT4 cells.
In data set [11] the test system is Human immunodeficiency virus 1. Description: Antiviral activity against HIV-1 F227L-V106A mutant infected in human MT4 cells assessed as protection against virus induced cytopathic effect and measured after 5 days by MTT spectrophotometric assay. Format: functional, organism-based. The settings on record: Human immunodeficiency virus 1, MT4, 120 h.

pEC50, pIC50: −log10 of the molar value.

Description for in vitro: Selectivity index, ratio of CC50 for cytotoxicity against human MT4 cells assessed as reduction in cell viability to EC50 for antiviral activity against HIV-1 IIIb infected in human MT4 cells assessed as reduction in virus induced cytopathic effect

On to `CS(=O)(=O)Nc1ccc2[nH]c(C(=O)N3CCC(Nc4nccc(Oc5ccccc5Br)n4)CC3)cc2c1`, for which the pEC50 in data set [1] was less than 4.77; in [2], less than 4.77; in data set [3], 6.10; in [4], 5.42; in [5], 5.15; in [6], 5.17. The values for the pEC50 in [7], in data set [9] and in [11] were 6.57, 5.43 and 5.19, respectively. For the same molecule, the CC50 at 120 h in data set [8] is 17 µM. The pIC50 in [10] was 5.85. Moreover, the selectivity ratio in the data set “in vitro” was 60.
On to `CS(=O)(=O)Nc1ccc2[nH]c(C(=O)N3CCC(Nc4nccc(Oc5ccc(Cl)cc5)n4)CC3)cc2c1`, for which the pEC50 in data set [1] is less than 4.82; in data set [2], less than 4.82; in [3], 5.35; in data set [4] it was 5.08; in [5], less than 4.82; in data set [6], 5.09. Moreover, the pEC50 in data set [7] was 6.13; in [9] it was less than 4.82; in [11], less than 4.82. The CC50 at 120 h in [8] is 15 µM. Moreover, the pIC50 in data set [10] was 5.96. In addition, the selectivity ratio in the data set “in vitro” was 20.
In the case of `CS(=O)(=O)Nc1ccc2[nH]c(C(=O)N3CCC(Nc4nccc(Oc5ccc(Br)cc5)n4)CC3)cc2c1`, the pEC50 in data set [1] is less than 5.04; in [2] it was less than 5.04; in data set [3] it was 5.17; in data set [4], 5.09; in [5], less than 5.04; in data set [6], 5.15. Moreover, the pEC50 is 6.06 in data set [7], less than 5.04 in data set [9] and less than 5.04 in data set [11]. In [8], the CC50 at 120 h is 9.1 µM. In addition, in [10], the pIC50 is 5.66. Also, the selectivity ratio in the data set “in vitro” was 10.
For the molecule `CS(=O)(=O)Nc1ccc2[nH]c(C(=O)N3CCC(Nc4nccc(Oc5cccc(F)c5)n4)CC3)cc2c1`, the pEC50 was less than 4.82 in [1]; less than 4.82 in data set [2]; 5.14 in [3]; less than 4.82 in [4]; less than 4.82 in [5]; less than 4.82 in [6]. Besides, the pEC50 is 5.24 in data set [7], less than 4.82 in data set [9] and less than 4.82 in [11]. Also, the CC50 at 120 h in data set [8] stood at 15 µM. The molecule also had a pIC50 in data set [10] of 5.38. The selectivity ratio in “in vitro” was 3.
Turning to `CS(=O)(=O)Nc1ccc2[nH]c(C(=O)N3CCC(Nc4nccc(Oc5cccc(Br)c5)n4)CC3)cc2c1`, the pEC50 in [1] is less than 4.85; in [2] it was less than 4.85; in [3], 5.46; in [4], 5.12; in [5], less than 4.85; in [6], 5.14. Moreover, the pEC50 in [7] is 6.17; in data set [9] it was 5.09; in data set [11], 5.09. The CC50 at 120 h in [8] worked out at 14 µM. The molecule also showed a pIC50 in data set [10] of 5.47. In the data set “in vitro”, the selectivity ratio is 21.
Turning to `CS(=O)(=O)Nc1ccc2[nH]c(C(=O)N3CCC(Nc4nccc(Oc5cccc(Cl)c5)n4)CC3)cc2c1`, the negative logarithm of the EC50 (pEC50) in [1] was less than 4.85; in [2] it was less than 4.85; in data set [3], 5.26; in [4], 5.09; in data set [5], 5.04; in data set [6], 5.09. Further, the pEC50 in data set [7] is 6.15; in [9], 5.05; in data set [11], 5.06. Moreover, in [8], the CC50 at 120 h was found to be 14 µM. The molecule further had a pIC50 in data set [10] of 6.47. Besides, the selectivity ratio in “in vitro” is 20.
For `CS(=O)(=O)Nc1ccc2[nH]c(C(=O)N3CCC(Nc4nccc(Oc5ccccc5Cl)n4)CC3)cc2c1`, the pEC50 in [1] was less than 4.82; in data set [2] it was less than 4.82; in [3] it was 6.01; in data set [4] it was 5.19; in data set [5], 5.11; in [6], 5.12. In addition, the results for the pEC50 in data set [7], in [9] and in [11] were 6.37, 5.23 and 5.08, respectively. Further, the CC50 at 120 h in data set [8] was determined as 15 µM. The pIC50 in [10] was 5.80. In the data set “in vitro”, the selectivity ratio worked out at 35.

As usually defined, the pEC50 is the negative decadic logarithm of the EC50, by convention in mol/L. As a reminder, the CC50 is the concentration giving 50% cytotoxicity. For orientation: pIC50 means the negative decadic logarithm of the IC50, by convention in mol/L.

(Values after ChEMBL document CHEMBL5321204, “Hybrids of delavirdine and piperdin-4-yl-aminopyrimidines (DPAPYs) as potent HIV-1 NNRTIs: Design, synthesis and biological activities” (Eur J Med Chem, 2023).)
